Article PMC3677765 (Forensic science international, 2012)

Tests used:
Post-preparative = assay type: physicochemical; conditions: extracted samples stored in the auto-sampler 72 h at room temperature
[1] = positive samples among 80 subjects (JWH-018 in 9, JWH-073 in 6); cited from earlier work
[2] = Brain concentrations in mice after inhalation of "Magic Gold" smoke; assay type: in vivo, C57BL6 mice
[3] = Blood concentrations in mice after inhalation of "Magic Gold" smoke; assay type: in vivo, C57BL6 mice
[4] = next specimen collected 18 h later (after the 6 h sample); cited from earlier work

Row | SMILES | Degradation (auto-sampler stability) (Post-preparative) | Serum concentration (mean) [1] [ng/mL] | JWH-073 brain concentration higher than JWH-018 (mean increase) ([2]; 20 min after exposure) [%] | Brain concentration (range) ([2]; 20 h post exposure, five mice) | JWH-073 blood concentration higher than JWH-018 (mean increase) ([3]; 20 min after exposure) [%] | Serum detection [4] | Detection in brain samples ([2]; 20 min and 20 h after exposure) | Detection in blood samples ([3]; 20 min and 20 h after exposure)
1 | CCCCn1cc(C(=O)c2cccc3ccccc23)c2ccccc21 [JWH-073, Naphthalen-1-yl-(1-butylindol-3-yl)methanone] | approximately 20% | 0.42 | 84 | not detected | 53 |  |  | 
2 | CCCCCn1cc(C(=O)c2cccc3ccccc23)c2ccccc21 [JWH-018, Naphthalen-1-yl-(1-pentylindol-3-yl)methanone] |  | 1.84 |  |  |  | undetectable |  | 
3 | CCCCCn1cc(C(=O)c2ccc(Cl)c3ccccc23)c2ccccc21 [JWH-398, 4-chloronaphthalen-1-yl-(1-penty-lindolin-3-yl)methanone] |  |  |  |  |  |  | not detected | not detected
